Measured values as given in publication PMC9667546, “Selective Inhibition of Bruton’s Tyrosine Kinase by a Designed Covalent Ligand Leads to Potent Therapeutic Efficacy in Blood Cancers Relative to Clinically Used Inhibitors” (ACS Pharmacology & Translational Science, 2022).
Several values for one entry are separate records, joined by “and”; a condition that tells them apart may be missing. Equal entries are not always repeated.

Assays:
[1] = biological target: T1, TEC (Homo sapiens, UniProt P42680); conditions: 1 µM inhibition screening; ref SI 8–10; cited from earlier work
T1 construct: host or cells: HEK296T (so in the source)
T1 sequence (P42680 1-631): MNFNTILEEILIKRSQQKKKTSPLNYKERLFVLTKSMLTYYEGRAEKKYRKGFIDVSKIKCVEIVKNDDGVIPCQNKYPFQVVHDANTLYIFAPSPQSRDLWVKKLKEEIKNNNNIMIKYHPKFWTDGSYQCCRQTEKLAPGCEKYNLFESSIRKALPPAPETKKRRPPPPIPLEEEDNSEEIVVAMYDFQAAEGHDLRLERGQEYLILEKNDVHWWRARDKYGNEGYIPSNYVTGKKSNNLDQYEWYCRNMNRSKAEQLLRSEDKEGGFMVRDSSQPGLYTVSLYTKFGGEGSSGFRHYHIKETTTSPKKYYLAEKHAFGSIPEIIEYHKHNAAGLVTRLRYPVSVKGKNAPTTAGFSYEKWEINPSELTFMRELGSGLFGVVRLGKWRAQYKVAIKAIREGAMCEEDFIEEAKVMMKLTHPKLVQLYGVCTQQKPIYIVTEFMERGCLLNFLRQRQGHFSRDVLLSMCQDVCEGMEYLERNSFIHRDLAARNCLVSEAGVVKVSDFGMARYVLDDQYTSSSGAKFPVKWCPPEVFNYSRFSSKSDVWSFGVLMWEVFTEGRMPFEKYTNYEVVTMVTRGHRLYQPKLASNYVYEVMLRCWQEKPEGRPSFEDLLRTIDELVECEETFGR

[2] = biological target: T2, EGFR (Homo sapiens, UniProt P00533); conditions: cited from earlier work
T2 construct: host or cells: HEK296T (so in the source)

[3] = biological target: T3, TXK (Homo sapiens, UniProt P42681); conditions: cited from earlier work
T3 construct: host or cells: HEK296T (so in the source)
T3 sequence (P42681 1-527): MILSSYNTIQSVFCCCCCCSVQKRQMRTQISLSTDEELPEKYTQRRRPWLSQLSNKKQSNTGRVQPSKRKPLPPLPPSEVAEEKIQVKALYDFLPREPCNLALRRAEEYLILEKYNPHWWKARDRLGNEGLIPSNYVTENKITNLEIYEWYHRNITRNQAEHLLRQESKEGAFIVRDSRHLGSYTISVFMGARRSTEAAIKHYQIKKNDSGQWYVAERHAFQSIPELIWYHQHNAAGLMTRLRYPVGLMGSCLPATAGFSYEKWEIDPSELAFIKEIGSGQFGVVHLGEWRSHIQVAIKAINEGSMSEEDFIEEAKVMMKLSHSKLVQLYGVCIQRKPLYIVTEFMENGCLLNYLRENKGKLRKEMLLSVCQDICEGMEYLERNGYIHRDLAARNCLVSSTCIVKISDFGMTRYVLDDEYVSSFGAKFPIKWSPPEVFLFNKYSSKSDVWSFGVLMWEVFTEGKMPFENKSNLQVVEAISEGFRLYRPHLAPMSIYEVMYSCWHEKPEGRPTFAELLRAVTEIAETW

[4] = biological target: BLK (Homo sapiens, UniProt P51451); conditions: cited from earlier work
[5] = test system: Her2; conditions: read-out: IC50, Her2; Table S3 heat map; ref SI 1-19; cited from earlier work
[6] = biological target: BTK (Homo sapiens, UniProt Q06187); design: purchased Promega Corporation V2941; conditions: Table S3 heat map; ref SI 1-19; read-out: IC50, BTK; cited from earlier work
[7] = test system: MOLM-13 cells (AML); assay: Cell viability assay (CellTiter-Glo), MOLM-13; type: cell-based; conditions: Homo sapiens, 72 h, n = 3
Method: (§1) All cell lines were purchased from ATCC, except for DoHH-2 cells that were obtained from DSMZ. Cells were cultivated in complete DMEM supplemented with 10% (vol/vol) FBS (Gibco) and 1% of penicillin/streptomycin (Gibco). The cells were grown in a humidified atmosphere of 5% CO2 at 37°C, with the medium changed every other day.
(§2) Cells were inoculated at a density of 5000 cells/well. Serially diluted compounds (starting at 50 μM) were added 24 h later. The assay was performed in triplicates. After 72 h of incubation, cellular viability was assessed by CellTiter-Glo (Promega) according to the manufacturer’s instructions. The values were normalized with the vehicle (DMSO), and the IC50 was calculated using GraphPad Prism 8.

[8] = test system: HBEC-5i cell model; assay: In vitro blood–brain barrier permeability (translocation), HBEC-5i cell model; type: in vitro ADME, human; conditions: Translocation 24 h, compound 15 μM
Method: Human cerebral microvascular endothelial cells (HBEC-5i) were cultured as a monolayer on attachment factor protein solution (AF)-coated T-flasks (Gibco), using DMEM/F12 medium (Gibco), supplemented with 10% FBS, 1% penicillin/streptomycin, and 40.0 μg/mL endothelial cell growth supplement (ECGS, Sigma), according to the manufacturer’s instructions. The capacity of the compounds to cross the brain–blood barrier (BBB) was evaluated using an in vitro HBEC-5i cell model, as previously described.[29] Samples from the apical and basolateral sides were collected, and fluorescence intensity was measured using a Varioskan LUX multimode microplate reader. The retention was considered the difference between the initial fluorescence of compounds (100%) and the aggregated apical and basolateral fluorescence.

[9] = test system: Raji cells; assay: Mice xenograft model of Burkitt’s lymphoma (subcutaneous Raji cells); type: in vivo
Method: Female adult BALB/c/NSG mice were injected subcutaneously with 1 × 10^6 Raji cells, in a 1:1 solution of Matrigel Matrix (Corning) to create solid tumors. When tumors reached 180 mm^3 on average, mice were randomized into four groups (n = 6/group), and dosing began every 2 days. […] Tumor size and body weight were monitored periodically for 12 days. At the end of the experiment, mice necropsies were performed. Stereological analysis was conducted by the Histopathology Unit at Instituto Gulbenkian de Ciência and by the Comparative Pathology Unit at Instituto de Medicina Molecular João Lobo Antunes. Quantification of metastases and cell necrosis was performed in all groups (n = 5/group). Statistical analysis was conducted using one-way ANOVA. The Dunnet test was used to analyze the statistical significance between the treatment groups and the control.

[10] = test system: DoHH-2 cells (DLBCL); assay: Cell viability assay (CellTiter-Glo), DoHH-2; type: cell-based; conditions: Homo sapiens, 72 h, n = 3
Method: as §1, §2

[11] = test system: Raji cells (BL); assay: Cell viability assay (CellTiter-Glo), Raji; type: cell-based; conditions: Homo sapiens, 72 h, n = 3
Method: as §1, §2

[12] = test system: HL-60 cells (APML); assay: Cell viability assay (CellTiter-Glo), HL-60; type: cell-based; conditions: Homo sapiens, 72 h, n = 3
Method: as §1, §2

[13] = test system: PBMCs from CLL patients; assay: Zebrafish patient-derived xenografts of chronic lymphocytic leukemia; type: in vivo; conditions: all zPDXs, 48 h of treatment
Method: Whole blood (3–6 mL) from CLL patients (Supporting Table S1) was collected, and PBMCs were purified by Ficoll-Paque PLUS (GE Healthcare) density centrifugation.
The collected PBMCs were resuspended in RPMI (Biowest) with 3 times their volume and centrifuged at 1400 rpm, 4 °C, for 7 min. Cell pellets were resuspended in DPBS 1× (Biowest) supplemented with universal nuclease at 25 U/mL (Thermo Scientific). Concentration was normalized to […] for zebrafish patient-derived xenograft (zPDX) generation. Prior to drug efficacy analysis in zebrafish, the cells were distributed to proceed for flow cytometry, to determine the percentage of CD19+CD5+ cells within the CD45+ population, from PBMCs of each CLL patient. The maximum tolerated concentration was also determined for each compound in noninjected zebrafish larvae (Supporting Figure S1).
Zebrafish larvae were anesthetized with Tricaine 1×, and thawed PBMCs were microinjected into the perivitelline space of anesthetized zebrafish larvae at 48 h post fertilization. […] At the end of the assay, 4 days post injection, zebrafish xenografts were sacrificed with an overdose of Tricaine 25× and fixed in 4% formaldehyde (Thermo Scientific) overnight, followed by storage in 100% methanol (VWR) at −20 °C.
The whole mount immunofluorescence protocol was started by rehydrating the xenografts through methanol series (75% > 50% > 25% in PBS 1×-Triton 0.1%). Next, the xenografts were permeabilized in PBS 1× with 0.1% (v/v) Triton and incubated in a blocking solution (containing 1% BSA and 1.5% goat serum) for 1 h at room temperature. The xenografts were incubated with the primary antibodies (anti-cleaved caspase 3—Cell Signaling Technology, clone Asp175, 9661, 1:100; anti-human mitochondria—Merck Millipore, clone 113-1, MAB1273, 1:50) diluted in the blocking solution overnight at 4 °C, followed by additional overnight incubation with 1:400 of secondary antibodies: Alexa goat anti-rabbit 594 (35560, Thermo Scientific) and Alexa goat anti-mouse 647 (84545, Thermo Scientific), and nuclei counterstaining with DAPI at 50 μg/mL (Sigma-Aldrich).
All images were obtained using a Zeiss LSM 980 Upright confocal laser scanning microscope. Xenografts were mounted in in-house Mowiol mounting media, and sequential images along tumor’s depth (from cloaca until the end of the tail) with a 5 μm interval were acquired using the z-stack function. […] For tumor burden, the area occupied by the PBMCs in each slice of the z-stack pile was determined by ImageJ software and summed up to obtain the tumor burden per xenograft. […]
Statistical analysis was performed using GraphPad Prism 8. […] A Gaussian distribution was only assumed for data sets that pass both normality tests and were analyzed by an unpaired t-test with Welch’s correction. […]

[14] = 1 µM inhibition screening, ref SI 8–10
[15] = 10 mg/kg, average of 5 animals, stereological analysis
[16] = 10 mg/kg, individual animals #1 to #5 in order

T2 sequence (P00533 25-1210): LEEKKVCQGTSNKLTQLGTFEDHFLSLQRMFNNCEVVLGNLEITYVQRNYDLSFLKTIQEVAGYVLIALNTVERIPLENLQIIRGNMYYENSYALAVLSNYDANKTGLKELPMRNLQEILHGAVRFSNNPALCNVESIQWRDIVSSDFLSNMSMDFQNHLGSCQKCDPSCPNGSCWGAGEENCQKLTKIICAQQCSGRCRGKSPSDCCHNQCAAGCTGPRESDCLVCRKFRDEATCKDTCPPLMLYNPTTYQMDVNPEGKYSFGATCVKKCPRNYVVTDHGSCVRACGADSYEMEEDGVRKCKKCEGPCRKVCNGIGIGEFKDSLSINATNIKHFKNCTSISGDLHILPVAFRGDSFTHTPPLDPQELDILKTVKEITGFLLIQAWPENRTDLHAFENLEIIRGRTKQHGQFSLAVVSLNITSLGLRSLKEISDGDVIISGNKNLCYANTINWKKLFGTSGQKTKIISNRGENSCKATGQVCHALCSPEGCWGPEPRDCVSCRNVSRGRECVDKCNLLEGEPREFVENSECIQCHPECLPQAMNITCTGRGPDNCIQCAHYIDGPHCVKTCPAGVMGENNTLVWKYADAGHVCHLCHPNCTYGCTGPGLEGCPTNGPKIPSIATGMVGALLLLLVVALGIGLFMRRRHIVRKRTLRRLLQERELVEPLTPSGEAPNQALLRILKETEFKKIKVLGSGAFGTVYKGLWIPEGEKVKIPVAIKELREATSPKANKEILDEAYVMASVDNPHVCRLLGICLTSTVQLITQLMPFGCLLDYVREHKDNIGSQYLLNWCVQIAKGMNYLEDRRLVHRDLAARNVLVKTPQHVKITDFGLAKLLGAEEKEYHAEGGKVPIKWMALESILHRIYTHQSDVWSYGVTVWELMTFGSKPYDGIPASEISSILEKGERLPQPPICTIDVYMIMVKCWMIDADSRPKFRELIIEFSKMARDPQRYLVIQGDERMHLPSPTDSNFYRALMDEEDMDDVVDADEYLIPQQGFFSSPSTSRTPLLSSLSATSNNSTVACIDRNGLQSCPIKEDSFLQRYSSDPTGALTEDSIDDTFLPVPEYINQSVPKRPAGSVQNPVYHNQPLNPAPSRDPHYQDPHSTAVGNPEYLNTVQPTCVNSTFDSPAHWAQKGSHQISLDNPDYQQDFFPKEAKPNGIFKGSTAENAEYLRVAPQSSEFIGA
Sequence of BLK (P51451 whole entry): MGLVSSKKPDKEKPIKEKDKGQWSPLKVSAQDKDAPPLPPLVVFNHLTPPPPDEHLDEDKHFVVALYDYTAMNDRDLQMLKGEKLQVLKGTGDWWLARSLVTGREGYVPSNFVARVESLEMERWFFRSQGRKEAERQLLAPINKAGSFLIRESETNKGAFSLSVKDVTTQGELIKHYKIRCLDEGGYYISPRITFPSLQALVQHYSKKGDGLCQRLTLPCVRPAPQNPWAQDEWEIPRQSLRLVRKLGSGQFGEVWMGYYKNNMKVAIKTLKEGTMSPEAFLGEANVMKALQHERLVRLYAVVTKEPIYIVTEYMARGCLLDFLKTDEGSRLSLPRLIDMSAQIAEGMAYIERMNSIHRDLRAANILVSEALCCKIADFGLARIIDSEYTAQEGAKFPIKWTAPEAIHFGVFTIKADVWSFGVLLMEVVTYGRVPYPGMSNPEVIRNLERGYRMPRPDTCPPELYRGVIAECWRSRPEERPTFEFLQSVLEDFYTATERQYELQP
Sequence of BTK (Q06187 whole entry): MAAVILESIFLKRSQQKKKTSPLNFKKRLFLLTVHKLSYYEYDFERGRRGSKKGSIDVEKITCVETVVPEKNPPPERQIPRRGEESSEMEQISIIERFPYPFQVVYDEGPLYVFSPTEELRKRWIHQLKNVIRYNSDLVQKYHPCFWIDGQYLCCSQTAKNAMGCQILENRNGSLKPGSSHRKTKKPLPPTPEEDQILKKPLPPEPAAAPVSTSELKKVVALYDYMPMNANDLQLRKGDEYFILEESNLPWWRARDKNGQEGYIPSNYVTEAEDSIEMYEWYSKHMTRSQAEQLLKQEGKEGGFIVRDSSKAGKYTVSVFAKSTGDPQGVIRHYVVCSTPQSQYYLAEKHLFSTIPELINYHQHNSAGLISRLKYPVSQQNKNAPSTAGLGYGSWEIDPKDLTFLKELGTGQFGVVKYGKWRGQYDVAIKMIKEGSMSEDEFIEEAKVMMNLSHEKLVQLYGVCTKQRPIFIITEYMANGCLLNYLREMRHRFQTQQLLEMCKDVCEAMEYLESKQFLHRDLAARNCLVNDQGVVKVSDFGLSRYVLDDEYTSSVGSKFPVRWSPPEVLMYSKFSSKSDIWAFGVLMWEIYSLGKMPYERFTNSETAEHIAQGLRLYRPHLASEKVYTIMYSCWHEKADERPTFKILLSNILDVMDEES

In the case of `C=CC(=O)N1CCC(CNc2ncnc(N)c2-c2ccc(Oc3ccccc3)cc2)CC1` [Evobrutinib, evobrutinib], the “inhibition, TEC” value [1] is listed as 82%, the “inhibition, EGFR” value [2, 14] is listed as 0% and the “inhibition, TXK” value [3, 14] is listed as 36%. The “inhibition, BLK” value [4, 14] was 36%.

In the case of `CC#CC(=O)N1CC[C@@H](n2c(=O)n(-c3ccc(Oc4ccccc4)cc3)c3c(N)ncnc32)C1` [Tirabrutinib, tirabrutinib], the IC50 [5] is given as 7310 nM, the IC50 ([3]; Table S3 heat map, ref SI 1-19) is given as 92 nM and the IC50 ([4]; read-out: IC50, BLK, Table S3 heat map, ref SI 1-19) is given as 300 nM.

For `NC(=O)[C@H]1CCN(c2ncnc(N)c2F)C[C@@H]1N1CCC[C@@H](Nc2cc(Cl)cc(C(F)(F)F)c2)C1=O` [Vecabrutinib], the IC50 [6] is given as 3 nM and the IC50 ([2]; Table S3 heat map, ref SI 1-19) is given as greater than 6 µM.

In the case of `C=CC(=O)N1CCC([C@@H]2CCNc3c(C(N)=O)c(-c4ccc(Oc5ccccc5)cc4)nn32)CC1` [Zanubrutinib, zanubrutinib], the IC50 [5] is listed as 661 nM.

In the case of `CC#CC(=O)N1CCC[C@H]1c1nc(-c2ccc(C(=O)Nc3ccccn3)cc2)c2c(N)nccn12` [acalabrutinib], the IC50 [7] is reported as 28.4 ± 0.03 µM and the “% Fluorescence, Basolateral side (permeability to the BBB)” value [8] is reported as 29.2%.

In the case of `C=CC(=O)N1CCC[C@@H](n2nc(-c3ccc(Oc4ccccc4)cc3)c3c(N)ncnc32)C1` [ibrutinib, reference compound], the IC50 [7] is given as roughly 0.46 µM, the IC50 [5] is given as […] and the “reduction in percentage of metastases” value ([9]; 10 mg/kg i.p. every 2 days, n = 5/group) is given as “around 30%”. The “Metastasis volume, Brain, Average” value [9, 15] was 0.78 mm³, the “Metastasis volume, Liver, Average” value [9, 15] was 4.73 mm³ and the “Metastasis volume, Lung, Average” value [9, 15] was 26.92 mm³. The “Metastasis volume, Spinal, Average” value [9, 15] was 51.37 mm³, the “Secondary tumour, Average” value [9, 15] was 64.21 mm³ and the “Metastasis volume, Brain, single animals” value [9, 16] was 0.86 mm³ and 0.82 mm³ and 0.00 mm³ and 1.72 mm³ and 0.48 mm³. For the same compound, the “Metastasis volume, Liver, single animals” value [9, 16] was 12.05 mm³ and 11.54 mm³ and 0.03 mm³ and 0.00 mm³ (2×), the “Metastasis volume, Lung, single animals” value [9, 16] was 134.59 mm³ and 0.00 mm³ (4×) and the “Metastasis volume, Spinal, single animals” value [9, 16] was 55.71 mm³ and 86.64 mm³ and 4.378 mm³ and 10.76 mm³ and 99.35 mm³. The “Secondary tumour, single animals” value [9, 16] was 96.59 mm³ and 0.00 mm³ (3×) and 224.46 mm³, the IC50 [10] was roughly 70 nM and the IC50 [11] was 36.2 ± 0.31 µM. For the same compound, the IC50 [12] was 7.74 ± 0.03 µM and the “% Fluorescence, Basolateral side (permeability to the BBB)” value [8] was 51.9%.

With `CC1(C)CCC(CN2CCN(c3ccc(C(=O)NS(=O)(=O)c4ccc(NCC5CCOCC5)c([N+](=O)[O-])c4)c(Oc4cnc5[nH]ccc5c4)c3)CC2)=C(c2ccc(Cl)cc2)C1` [venetoclax, reference compound] the “effect on tumor incidence and burden” value [13] was “major impact on tumor incidence and burden”.
